# From publication PMC7232244, “Aspartic Acid Isomerization Characterized by High Definition Mass Spectrometry Significantly Alters the Bioactivity of a Novel Toxin from Poecilotheria” (Toxins, 2020)
# Numbered stars: 1 amine (or outer) side, 2 acyl side, 3 side chain; on linkers, the order of the positions; unused ones are H or OH. Bridge positions count the residues as written; N and C are the ends. Square brackets hold non-standard residues; d marks the D form. Peptide text beside a SMILES is read from it. βAsp = O=C(O)[C@H](CC(=O)[*:2])N[*:1]
# Format: physicochemical
# Conditions: chromatographic, reversed-phase UPLC BEH C18, 0.10% formic acid/acetonitrile gradient; P. vittata venom (Figure 3A); taken as increased solubility / loss of hydrophobicity
# Description: We used an iterative series of analytical processes to identify potential peptide modulators for neuronal activity and subsequently identified their primary structure, including PTMs, that may alter their efficacy and potency. In the initial phase of toxin selection, venom from Poecilotheria were collected and screened by HDMS^E. The venom was a complex mixture of molecules with a high percentage of proteinaceous materials ranging from 3–6 kDa with an average venom yield from 50 collections (five from each of the ten species) of ~148 ± 12 μg of total protein per μL of venom as determined by conventional Bradford assay (data not shown). An analytical screening of each venom was performed for preliminary compound identification and any PTMs, e.g., isobaric conformations. 100 μg of lyophilized venom from each species of Poecilotheria were suspended in 1 mL of the initial mobile phase and a 1 μL aliquot injection was made into an UPLC coupled to a HDMS. […]
# In order to calculate the molecular mass, we deconvoluted the charge envelope of each peptide using high-resolution mass spectrometry MS scans (“MS” in HDMS^E). […] The molecular monoisotopic masses of PcaTX-1a and PcaTX-1b were determined to be 4024.710 Da and 4024.709 Da, respectively (Figure 3B,C). […]
compound,measurement,value
"CC(C)C[C@@H]1NC(=O)[C@H](Cc2c[nH]cn2)NC(=O)[C@H](CCCCN)NC(=O)[C@@H]2CSSC[C@H](NC(=O)CNC(=O)[C@H](C)N)C(=O)N[C@@H](CCCCN)C(=O)N[C@@H](Cc3ccc(O)cc3)C(=O)N[C@@H](CC(C)C)C(=O)N[C@@H](Cc3ccccc3)C(=O)NCC(=O)N[C@@H](CO)C(=O)N[C@H]3CSSC[C@H](NC(=O)CNC1=O)C(=O)N[C@@H](CCCNC(=N)N)C(=O)N[C@@H](CCCNC(=N)N)C(=O)N[C@@H](CCCCN)C(=O)N[C@@H](C)C(=O)N1CCC[C@H]1C(=O)N[C@@H](CCC(N)=O)C(=O)N[C@@H](Cc1ccc(O)cc1)C(=O)N[C@H](C(=O)NCC(=O)N[C@@H](Cc1c[nH]c4ccccc14)C(=O)N[C@@H](CC(=O)NCC(=O)N[C@H](C(=O)N[C@@H](Cc1ccccc1)C(N)=O)[C@@H](C)O)C(=O)O)CSSC[C@H](NC(=O)[C@H](CC(=O)O)NC(=O)[C@H](CO)NC(=O)[C@H](CC(=O)O)NC(=O)[C@H](CCC(=O)O)NC(=O)[C@H](CCCCN)NC3=O)C(=O)N2 [PcaTX-1a] (H-AGCKYLFGSCKEDSDCCKHLGCRRKAPQYCGW[βAsp]GTF-NH2; disulfide 3-17, 10-22, 16-30)",decrease of partition coefficient (k') as compared to PcaTX-1b,9.3%
